How the values were obtained:
[1] = DRUGMATRIX: Serotonin (5-Hydroxytryptamine) 5-HT3 radioligand binding (ligand: [3H] GR-65630); assay type: cell membranes, Membrane; details: hek293; Not Active = under 50% inhibition at 10 µM
[2] = target: T1, Vasoactive intestinal polypeptide receptor 1 (Homo sapiens, UniProt P32241); assay type: cell membranes, Membrane; details: ht-29; note: in other assays of this panel Not Active means under 50% inhibition at 10 µM
T1 sequence (P32241 whole entry): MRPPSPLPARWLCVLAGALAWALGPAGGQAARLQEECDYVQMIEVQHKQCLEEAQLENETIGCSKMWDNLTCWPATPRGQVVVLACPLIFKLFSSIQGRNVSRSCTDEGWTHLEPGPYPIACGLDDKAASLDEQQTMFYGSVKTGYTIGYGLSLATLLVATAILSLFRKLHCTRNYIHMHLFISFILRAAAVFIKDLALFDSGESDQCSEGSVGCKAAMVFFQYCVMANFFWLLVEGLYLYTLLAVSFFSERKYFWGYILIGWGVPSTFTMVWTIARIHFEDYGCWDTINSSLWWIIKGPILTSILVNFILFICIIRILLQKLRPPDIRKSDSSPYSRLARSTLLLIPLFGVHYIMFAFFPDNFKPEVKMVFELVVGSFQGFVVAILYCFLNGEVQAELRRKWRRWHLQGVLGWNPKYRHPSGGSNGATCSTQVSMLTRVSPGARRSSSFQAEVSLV

[3] = target: C-C chemokine receptor type 2 (Homo sapiens, UniProt P41597); assay type: cell membranes, CHO-K1, Membrane; details: cho-k1; note: in other assays of this panel Not Active means under 50% inhibition at 10 µM
[4] = target: T2, Endothelin-1 receptor (Homo sapiens, UniProt P25101); assay type: cell membranes, Membrane; details: cho-k1; note: in other assays of this panel Not Active means under 50% inhibition at 10 µM
T2 sequence (P25101 whole entry): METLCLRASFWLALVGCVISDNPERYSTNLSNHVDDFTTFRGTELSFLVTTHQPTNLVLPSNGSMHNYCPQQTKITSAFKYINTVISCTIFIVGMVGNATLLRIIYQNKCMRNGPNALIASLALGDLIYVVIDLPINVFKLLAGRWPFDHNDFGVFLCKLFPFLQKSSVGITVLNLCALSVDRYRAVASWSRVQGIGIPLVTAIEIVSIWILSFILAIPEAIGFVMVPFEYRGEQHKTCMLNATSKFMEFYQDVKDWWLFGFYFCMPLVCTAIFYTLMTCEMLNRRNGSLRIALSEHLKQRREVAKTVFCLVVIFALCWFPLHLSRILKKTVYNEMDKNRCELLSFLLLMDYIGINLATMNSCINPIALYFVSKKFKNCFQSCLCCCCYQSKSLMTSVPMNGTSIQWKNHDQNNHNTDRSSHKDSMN

[5] = target: Tyrosine-protein kinase Fyn (Homo sapiens, UniProt P06241); assay: biochemical; assay type: cell-based, Insect cells;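 note: enzymatic inhibition of Fyn kinase activity measured with Poly(Glu:Tyr) as the phosphorylation substrate; in other assays of this panel Not Active means under 50% inhibition at 10 µM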
[6] = target: Receptor tyrosine-protein kinase erbB-2 (Homo sapiens, UniProt P04626); assay: biochemical; assay type: cell-based, Insect cells; details: insect cells
Receptor tyrosine-protein kinase erbB-2, sequence (P04626 whole entry): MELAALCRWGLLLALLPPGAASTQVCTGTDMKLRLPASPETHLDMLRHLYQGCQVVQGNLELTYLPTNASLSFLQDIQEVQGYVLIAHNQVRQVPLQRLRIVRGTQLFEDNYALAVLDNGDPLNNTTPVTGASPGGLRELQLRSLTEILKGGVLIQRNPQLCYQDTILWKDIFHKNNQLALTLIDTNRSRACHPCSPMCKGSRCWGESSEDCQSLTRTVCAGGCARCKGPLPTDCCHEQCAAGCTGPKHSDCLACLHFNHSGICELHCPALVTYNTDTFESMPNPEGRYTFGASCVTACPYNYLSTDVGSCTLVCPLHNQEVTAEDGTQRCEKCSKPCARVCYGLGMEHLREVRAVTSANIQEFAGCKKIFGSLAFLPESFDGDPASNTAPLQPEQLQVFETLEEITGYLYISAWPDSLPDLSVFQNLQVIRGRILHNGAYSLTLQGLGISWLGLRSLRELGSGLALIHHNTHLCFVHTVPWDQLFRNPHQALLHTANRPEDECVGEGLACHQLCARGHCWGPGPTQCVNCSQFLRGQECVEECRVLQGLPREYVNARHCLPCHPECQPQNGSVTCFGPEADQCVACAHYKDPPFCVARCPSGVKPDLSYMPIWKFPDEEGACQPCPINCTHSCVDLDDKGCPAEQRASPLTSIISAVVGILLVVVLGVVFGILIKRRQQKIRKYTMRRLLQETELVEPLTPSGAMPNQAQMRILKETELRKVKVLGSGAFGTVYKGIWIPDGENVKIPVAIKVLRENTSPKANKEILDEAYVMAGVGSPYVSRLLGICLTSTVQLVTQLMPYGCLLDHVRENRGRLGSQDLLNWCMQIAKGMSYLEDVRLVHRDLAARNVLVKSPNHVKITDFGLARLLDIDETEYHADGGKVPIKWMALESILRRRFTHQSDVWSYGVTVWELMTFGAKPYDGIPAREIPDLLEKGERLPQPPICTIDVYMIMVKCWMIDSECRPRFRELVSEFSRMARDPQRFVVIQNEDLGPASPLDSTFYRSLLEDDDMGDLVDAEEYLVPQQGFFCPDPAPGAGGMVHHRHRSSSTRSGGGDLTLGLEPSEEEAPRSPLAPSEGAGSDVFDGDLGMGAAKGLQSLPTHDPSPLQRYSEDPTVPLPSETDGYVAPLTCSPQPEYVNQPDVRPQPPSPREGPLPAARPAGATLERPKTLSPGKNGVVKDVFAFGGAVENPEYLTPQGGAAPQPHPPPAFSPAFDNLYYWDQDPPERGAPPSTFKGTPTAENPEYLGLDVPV

C-C chemokine receptor type 2, sequence (P41597 whole entry): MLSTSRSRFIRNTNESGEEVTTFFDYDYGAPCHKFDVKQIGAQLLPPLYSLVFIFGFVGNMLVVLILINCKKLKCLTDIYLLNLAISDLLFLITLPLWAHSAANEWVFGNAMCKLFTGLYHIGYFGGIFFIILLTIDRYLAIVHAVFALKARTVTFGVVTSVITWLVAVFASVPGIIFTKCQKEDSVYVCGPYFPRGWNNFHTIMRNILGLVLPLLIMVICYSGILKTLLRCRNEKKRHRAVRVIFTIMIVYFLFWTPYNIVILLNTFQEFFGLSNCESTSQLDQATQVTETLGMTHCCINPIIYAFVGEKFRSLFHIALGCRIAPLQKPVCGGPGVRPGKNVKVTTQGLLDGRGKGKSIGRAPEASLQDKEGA
Tyrosine-protein kinase Fyn, sequence (P06241 whole entry): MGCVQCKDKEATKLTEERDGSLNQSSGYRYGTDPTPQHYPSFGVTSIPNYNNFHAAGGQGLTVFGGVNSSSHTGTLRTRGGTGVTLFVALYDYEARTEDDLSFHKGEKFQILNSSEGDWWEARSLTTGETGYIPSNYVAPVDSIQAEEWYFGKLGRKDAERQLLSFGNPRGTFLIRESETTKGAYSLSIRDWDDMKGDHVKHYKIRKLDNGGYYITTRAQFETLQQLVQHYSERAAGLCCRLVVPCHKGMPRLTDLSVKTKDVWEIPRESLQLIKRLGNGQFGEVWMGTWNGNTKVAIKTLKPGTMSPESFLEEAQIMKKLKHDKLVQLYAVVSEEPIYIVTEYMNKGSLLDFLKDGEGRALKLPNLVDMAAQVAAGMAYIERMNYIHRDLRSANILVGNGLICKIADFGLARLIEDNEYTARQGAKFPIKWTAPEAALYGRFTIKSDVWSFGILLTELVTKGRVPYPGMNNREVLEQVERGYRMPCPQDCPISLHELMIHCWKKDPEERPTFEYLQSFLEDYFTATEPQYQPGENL

SMILES | IC50 [1] | Ki [1] | IC50 [2] | IC50 [3] | IC50 [4] | IC50 ([5]; insect cells) | IC50 [6] | IC50 ([5]; read-out: IC50) [µM]
COc1ccc2c(c1)[C@]13CCCC[C@@H]1[C@H](C2)N(C)CC3 [DEXTROMETHORPHAN] | Not Active | Not Active | Not Active | Not Active | Not Active | Not Active | Not Active | –
COP(=O)(OC)OC=C(Cl)Cl [DICHLORVOS] | Not Active | Not Active | Not Active | Not Active | Not Active | Not Active | Not Active | –
CCN[C@@H]1C[C@H](N)[C@@H](O[C@H]2OC(CN)=CC[C@H]2N)[C@H](O)[C@H]1O[C@H]1OC[C@](C)(O)[C@H](NC)[C@H]1O [NETILMICIN] | Not Active | Not Active | Not Active | Not Active | Not Active | Not Active | Not Active | –
CN(C)/N=N/c1[nH]cnc1C(N)=O [DACARBAZINE] | Not Active | Not Active | Not Active | Not Active | Not Active | Not Active | Not Active | –
O=NN(CCCl)C(=O)NCCCl [CARMUSTINE] | Not Active | Not Active | Not Active | Not Active | Not Active | Not Active | Not Active | –
Oc1ccc(OCc2ccccc2)cc1 [MONOBENZONE] | Not Active | Not Active | Not Active | Not Active | Not Active | Not Active | Not Active | –
O=C1CC2(CCCC2)CC(=O)N1CCCCN1CCN(c2ncccn2)CC1 [BUSPIRONE] | Not Active | Not Active | Not Active | Not Active | Not Active | Not Active | Not Active | –
Nc1ccn([C@@H]2CS[C@H](CO)O2)c(=O)n1 [LAMIVUDINE] | Not Active | Not Active | Not Active | Not Active | Not Active | Not Active | Not Active | –
COc1ccc2c(c1)c(CC(=O)O)c(C)n2C(=O)c1ccc(Cl)cc1 [INDOMETHACIN] | Not Active | Not Active | Not Active | Not Active | Not Active | Not Active | Not Active | –
CC(C)[C@H]1CC[C@H](C(=O)N[C@H](Cc2ccccc2)C(=O)O)CC1 [NATEGLINIDE] | Not Active | Not Active | Not Active | Not Active | Not Active | Not Active | Not Active | –
CCCC(=O)Nc1ccc(OCC(O)CNC(C)C)c(C(C)=O)c1 (stereo not given) [ACEBUTOLOL] | Not Active | Not Active | Not Active | Not Active | Not Active | Not Active | Not Active | –
C[C@]12CC[C@@H]3c4ccc(OC(=O)c5ccccc5)cc4CC[C@H]3[C@@H]1CC[C@@H]2O [ESTRADIOL BENZOATE] | Not Active | Not Active | Not Active | Not Active | Not Active | – | Not Active | 23
CC1(C)O[C@@H]2C[C@H]3[C@@H]4C[C@H](F)C5=CC(=O)C=C[C@]5(C)[C@H]4[C@@H](O)C[C@]3(C)[C@]2(C(=O)CO)O1 [FLUNISOLIDE] | Not Active | Not Active | Not Active | Not Active | Not Active | Not Active | Not Active | –
CC1=C(C(=O)O)N2C(=O)[C@@H](NC(=O)[C@H](N)c3ccccc3)[C@H]2SC1 [CEPHALEXIN ANHYDROUS] | Not Active | Not Active | Not Active | Not Active | Not Active | Not Active | Not Active | –
COC(=O)C1=C(C)NC(C)=C(C(=O)OCC(C)C)C1c1ccccc1[N+](=O)[O-] (stereo not given) [NISOLDIPINE] | Not Active | Not Active | Not Active | Not Active | Not Active | Not Active | Not Active | –
